Measurements from US6916837B2, “Amidino derivatives and anticoagulants and thrombosis therapeutic agents containing them” (Eisai Co., Ltd., priority 2001, dated 2005).
Where a name gives a salt, the structure may show the parent alone.

The molecules below were run against T1, human blood clotting factor VIIa (Homo sapiens, UniProt P08709) (assay: Inhibiting activity against blood clotting factor VIIa (Spectrozyme VII chromogenic assay)). Details: 10 nM human tissue factor, 5 nM human blood clotting factor VIIa, Spectrozyme VII substrate, 40 minutes at room temperature, absorbance 405 nm.
T1 construct: 5 nM human blood clotting factor VIIa
T1 sequence (P08709 213-466 limits assumed): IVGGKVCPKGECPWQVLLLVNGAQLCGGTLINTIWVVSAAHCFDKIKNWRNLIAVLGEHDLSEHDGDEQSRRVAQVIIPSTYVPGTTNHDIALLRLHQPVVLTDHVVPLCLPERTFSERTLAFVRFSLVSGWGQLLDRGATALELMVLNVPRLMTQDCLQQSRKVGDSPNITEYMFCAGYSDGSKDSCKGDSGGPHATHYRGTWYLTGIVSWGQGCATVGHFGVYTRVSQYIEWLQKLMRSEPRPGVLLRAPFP
T1 sequence (P08709 61-212 limits assumed): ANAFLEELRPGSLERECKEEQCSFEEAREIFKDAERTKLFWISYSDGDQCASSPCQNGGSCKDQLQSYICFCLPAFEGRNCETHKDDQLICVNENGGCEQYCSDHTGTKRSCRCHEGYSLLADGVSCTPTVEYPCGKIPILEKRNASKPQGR
T1 sequence (P13726 33-295 partner): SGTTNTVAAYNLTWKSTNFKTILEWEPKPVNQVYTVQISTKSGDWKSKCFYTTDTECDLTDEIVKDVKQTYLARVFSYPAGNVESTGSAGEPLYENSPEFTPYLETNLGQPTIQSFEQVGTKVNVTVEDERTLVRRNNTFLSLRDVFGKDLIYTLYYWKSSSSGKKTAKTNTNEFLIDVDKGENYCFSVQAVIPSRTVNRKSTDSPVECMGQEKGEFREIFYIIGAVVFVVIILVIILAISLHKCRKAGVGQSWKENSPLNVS
Assay type: biochemical
Experimental: Pharmacological Activity Test (Inhibiting Activity Against Blood Clotting Factor VIIa)
Compounds of the present invention (Examples 1-4, 1-26, 1-39, 1-40 and 8-3) were each dissolved in dimethyl sulfoxide to 5 mg/ml, and then each solution was diluted 50-fold with reaction buffer to prepare a 100 μg/ml solution (2% dimethyl sulfoxide solution) Also, a 10-fold dilution series with reaction buffer was prepared with the compound solutions from 100 μg/ml to 1 ng/ml. Separately, dimethyl sulfoxide alone was diluted 50-fold with reaction buffer to prepare a 2% dimethyl sulfoxide solution as a control. The composition of the reaction buffer was 50 mM Tris-acetate (pH 7.5), 15 mM calcium chloride (CaCl2), 0.15 M sodium chloride (NaCl) and 6 mg/ml Cephalin. There were also added to the buffer 10 nM human tissue factor (TF) and 5 nM human blood clotting factor VIIa, to prepare enzyme solutions. After separating off 65 μl of each solution, a 10 μl portion of the 2% dimethyl sulfoxide solution of each compound of the invention was added and preincubation was performed at room temperature. As a substrate there was added 25 μl of 1.0 mM Spectrozyme VII, and reaction was conducted for 40 minutes at room temperature. The enzyme reaction rate was quantified by the change ion absorbance of released 4-nitroanilide at 405 nm.
For measurement of the inhibiting activity against human blood clotting factor VIIa, the enzyme reaction rate was determined in the presence of the above-mentioned compounds of the present invention from 10 μg/ml to 0.1 ng/ml. The IC50 values were calculated based on nonlinear regression analysis, as an index of the inhibiting activity against human blood clotting factor VIIa.

Compound | IC50
CC(=O)N1CCc2ccc(S(=O)(=O)Nc3ccc(Oc4ccc5cc(C(=N)N)ccc5c4)c(-c4ccccc4C(=O)O)c3)cc2C1 [Example 1-39, 2′-(6-amidino-2-naphthyloxy)-5′-[1,2,3,4-tetrafluoro-2-(acetyl)isoquinoline-7-sulfonyl)amino-1,1′-biphenyl-2-carboxylic acid trifluoroacetate] | 30 nM
N=C(N)c1ccc2cc(Oc3ccc(NS(=O)(=O)c4ccc5ccccc5c4)cc3C(=O)O)ccc2c1 [Example 1-4, 2-(6-amidino-2-naphthyloxy)-5-(2-naphthalenesulfonyl)aminobenzoic acid trifluoroacetate] | 1430 nM
COc1ccc(S(=O)(=O)Nc2ccc(Oc3ccc4cc(C(=N)N)ccc4c3)c(-c3ccccc3C(=O)O)c2)cc1 [Example 1-26, 2′-(6-amidino-2-naphthyloxy)-5′-(4-methoxybenzenesulfonyl)amino-1,1′-biphenyl-2-carboxylic acid trifluoroacetate] | 210 nM

Further lines, results first:

IC50 | Compound
4 nM | Cc1ccc(S(=O)(=O)Nc2ccc(Oc3ccc4cc(C(=N)N)ccc4c3)c(-c3ccc(C(=O)NCC(C)C)cc3C(=O)O)c2)cc1Cl [Example 8-3, 2′-(6-amidino-2-naphthyloxy)-4-(2-methylpropylcarbamoyl)-5′-(3-chloro-4-methylbenzenesulfonyl)amino-1,1′-biphenyl-2-carboxylic acid trifluoroacetate]
40 nM | Cc1ccc(S(=O)(=O)Nc2ccc(Oc3ccc4cc(C(=N)N)ccc4c3)c(-c3ccccc3C(=O)O)c2)cc1Cl [Example 1-40, 2′-(6-amidino-2-naphthyloxy)-5′-(3-chloro-4-methylbenzenesulfonyl)amino-1,1′-biphenyl-2-carboxylic acid trifluoroacetate]
